In patent publication US12024531B2, “Immunoproteasome inhibitors” (Principia Biopharma Inc., priority 2017, dated 2024):

How the values were obtained:
[1] = target: constitutive proteasome β5c subunit (Homo sapiens, UniProt P28074); experiment: Caliper-based proteasome enzymatic activity assay, β5c; type: biochemical; conditions: human recombinant constitutive proteasome 0.3 nM, FAM peptide substrate 1 μM, rt 3 h
[2] = target: immunoproteasome LMP7/B5i subunit (Homo sapiens, UniProt P28062); experiment: Caliper-based proteasome enzymatic activity assay, LMP7; type: biochemical; conditions: human recombinant immunoproteasome 0.3 nM, FAM peptide substrate 1 μM, rt 3 h

Row | IC50 [1] | IC50 [2] | Structure (SMILES)
1 | 32 nM | 6 nM | CC(C)(C)NC(=O)C(C#N)=Cc1cccc(CC[C@H](NC(=O)c2cnccn2)C(=O)N[C@@H](Cc2ccccc2)B(O)O)c1 [Example 1, ((R)-1-((S)-4-(3-(3-(tert-butylamino)-2-cyano-3-oxoprop-1-en-1-yl)phenyl)-2-(pyrazine-2-carboxamido)butanamido)-2-phenylethyl)boronic Acid]
2 | 120 nM | 10 nM | CC(C)(C)NC(=O)C(C#N)=Cc1cccc(CCC(=O)N[C@@H](Cc2ccccc2)B(O)O)c1 [Example 3, (R)-(1-(3-(3-(3-(tert-butylamino)-2-cyano-3-oxoprop-1-en-1-yl)phenyl)propanamido)-2-phenylethyl)boronic Acid]
3 | 420 nM | 16 nM | CCc1cccc(C[C@H](NC(=O)CCOc2cccc(C=C(C#N)C(=O)NC(C)(C)C)c2)B(O)O)c1 [Example 8, (R)-(1-(3-(3-(3-(tert-butylamino)-2-cyano-3-oxoprop-1-en-1-yl)phenoxy)propanamido)-2-(3-ethylphenyl)ethyl)boronic Acid]
4 | 100 nM | 4 nM | CC(C)NC(=O)C(C#N)=Cc1cccc(OCCC(=O)N[C@@H](Cc2ccccc2)B(O)O)c1 [Example 12, (R)-1-(3-(3-(2-cyano-3-(isopropylamino)-3-oxoprop-1-enyl)phenoxy)propanamido)-2-phenylethylboronic Acid]
5 | 3930 nM | 149 nM | CC(C)(C)C[C@H](NC(=O)CCOc1cccc(C=C(C#N)C(=O)NC(C)(C)C)c1)B(O)O [Example 13, (R)-1-(3-(3-(3-(tert-butylamino)-2-cyano-3-oxoprop-1-enyl)phenoxy)propanamido)-3,3-dimethylbutylboronic Acid]
6 | 85 nM | 15 nM | CC(C)(C)NC(=O)C(C#N)=Cc1ccc(F)c(OCCC(=O)N[C@@H](Cc2ccccc2)B(O)O)c1 [Example 18, (R)-(1-(3-(5-(3-(tert-butylamino)-2-cyano-3-oxoprop-1-en-1-yl)-2-fluorophenoxy)propanamido)-2-phenylethyl)boronic Acid]
7 | 87 nM | 1.2 nM | CCN(C(=O)C(C#N)=Cc1cccc(CCOC(=O)N[C@@H](Cc2coc3ccccc23)B(O)O)c1)C1CCOCC1 [Example 95, (R)-(2-(benzofuran-3-yl)-1-(((3-(2-cyano-3-(ethyl(tetrahydro-2H-pyran-4-yl)amino)-3-oxoprop-1-en-1-yl)phenethoxy)carbonyl)amino)ethyl)boronic Acid]
8 | 328 nM | 2.1 nM | CCN(CC)C(=O)C(C#N)=Cc1cccc(CCNC(=O)N[C@@H](Cc2coc3ccccc23)B(O)O)c1 [Example 96, (R)-(2-(benzofuran-3-yl)-1-(3-(3-(2-cyano-3-(diethylamino)-3-oxoprop-1-en-1-yl)phenethyl)ureido)ethyl)boronic Acid]
9 | 43 nM | 0.7 nM | CCN(CC)C(=O)C(C#N)=Cc1cc(C#N)cc(CCOC(=O)N[C@@H](Cc2coc3ccccc23)B(O)O)c1 [Example 97, (R)-(2-(benzofuran-3-yl)-1-(((3-cyano-5-(2-cyano-3-(diethylamino)-3-oxoprop-1-en-1-yl)phenethoxy)carbonyl)amino)ethyl)boronic Acid]
10 | 71 nM | 0.5 nM | C[C@@H]1COC[C@@H](C)N1C(=O)C(C#N)=Cc1cccc(CCOC(=O)N[C@@H](Cc2coc3ccccc23)B(O)O)c1 [Example 98, ((R)-2-(benzofuran-3-yl)-1-(((3-(2-cyano-3-((3R,5R)-3,5-dimethylmorpholino)-3-oxoprop-1-en-1-yl)phenethoxy)carbonyl)amino)ethyl)boronic Acid]
11 | 1740 nM | 1.5 nM | N#CC(=Cc1cccc(CCOC(=O)N[C@@H](Cc2ccccc2)B(O)O)c1)n1cncn1 [Example 99, (R)-(1-(((3-(2-cyano-2-(1H-1,2,4-triazol-1-yl)vinyl)phenethoxy)carbonyl)amino)-2-phenylethyl)boronic Acid]
12 | 1430 nM | 5.2 nM | CCN(C(=O)C(C#N)=Cc1cccc(CCNC(=O)N[C@@H](Cc2coc3ccccc23)B(O)O)c1)C1CCOCC1 [Example 100, (R)-(2-(benzofuran-3-yl)-1-(3-(3-(2-cyano-3-(ethyl(tetrahydro-2H-pyran-4-yl)amino)-3-oxoprop-1-en-1-yl)phenethyl)ureido)ethyl)boronic Acid]
13 | 1550 nM | 2.2 nM | CCN(C(=O)C(C#N)=Cc1cc(C#N)cc(CCOC(=O)N[C@@H](Cc2ccccc2)B(O)O)c1)C1CCOCC1 [Example 102, (R)-(1-(((3-cyano-5-(2-cyano-3-(ethyl(tetrahydro-2H-pyran-4-yl)amino)-3-oxoprop-1-en-1-yl)phenethoxy)carbonyl)amino)-2-phenylethyl)boronic Acid]
14 | 460 nM | 1.4 nM | CCN(C(=O)C(C#N)=Cc1cc(C#N)cc(CCOC(=O)N[C@@H](Cc2ccc(C)cc2)B(O)O)c1)C1CCOCC1 [Example 103, (R)-(1-(((3-cyano-5-(2-cyano-3-(ethyl(tetrahydro-2H-pyran-4-yl)amino)-3-oxoprop-1-en-1-yl)phenethoxy)carbonyl)amino)-2-(p-tolyl)ethyl)boronic Acid]
15 | 2870 nM | 3.3 nM | CCN(CC)C(=O)C(C#N)=Cc1cc(C#N)cc(CCOC(=O)N[C@@H](Cc2ccccc2)B(O)O)c1 [Example 104, (R)-(1-(((3-cyano-5-(2-cyano-3-(diethylamino)-3-oxoprop-1-en-1-yl)phenethoxy)carbonyl)amino)-2-phenylethyl)boronic Acid]
16 | 21 nM | 1.6 nM | CCN(C(=O)C(C#N)=Cc1ccc2c(c1)CN(CC(=O)N[C@@H](Cc1coc3ccccc13)B(O)O)CC2)C1CCOCC1 [Example 105, (R)-(2-(benzofuran-3-yl)-1-(2-(7-(2-cyano-3-(ethyl(tetrahydro-2H-pyran-4-yl)amino)-3-oxoprop-1-en-1-yl)-3,4-dihydroisoquinolin-2(1H)-yl)acetamido)ethyl)boronic Acid]
17 | > 5000 nM | 4.8 nM | N#CC(=Cc1cccc(CCOC(=O)N[C@@H](CCc2ccccc2)B(O)O)c1)n1cncn1 [Example 106, (R)-(1-(((3-(2-cyano-2-(1H-1,2,4-triazol-1-yl)vinyl)phenethoxy)carbonyl)amino)-3-phenylpropyl)boronic Acid]
18 | > 5000 nM | 23 nM | Cc1ccc(C[C@H](NC(=O)NCCc2cccc(C=C(C#N)n3cncn3)c2)B(O)O)cc1 [Example 107, (R)-(1-(3-(3-(2-cyano-2-(1H-1,2,4-triazol-1-yl)vinyl)phenethyl)ureido)-2-(p-tolyl)ethyl)boronic Acid]
19 | > 5000 nM | 35 nM | CCN(CC)C(=O)C(C#N)=Cc1ccc2c(c1)CN(CC(=O)N[C@@H](Cc1ccc(C)cc1)B(O)O)CC2 [Example 108, (R)-(1-(2-(7-(2-cyano-3-(diethylamino)-3-oxoprop-1-en-1-yl)-3,4-dihydroisoquinolin-2(1H)-yl)acetamido)-2-(p-tolyl)ethyl)boronic Acid]
20 | 77 nM | 7.5 nM | CCN(CC)C(=O)C(C#N)=Cc1ccc2c(c1)CN(CC(=O)N[C@@H](Cc1ccccc1)B(O)O)CC2 [Example 109, (R)-(1-(2-(7-(2-cyano-3-(diethylamino)-3-oxoprop-1-en-1-yl)-3,4-dihydroisoquinolin-2(1H)-yl)acetamido)-2-phenylethyl)boronic Acid]
